We go through 9 molecules from US20040038855A1 (priority 1999, published 2004).

Counter-ions that a name gives are not always drawn. Like-named read-outs stand apart in the source and are kept apart here.

As usually defined, the Ki is the dissociation constant of the complex between target and ligand, obtained from inhibition or displacement. As a reminder, the Kb is the equilibrium dissociation constant of an antagonist, usually derived from a functional assay.

The target of one assay is T1, human GALR2 receptor (Homo sapiens, UniProt O43603).
T1 construct: expressed in transfected cells
T1 sequence (O43603 1-387): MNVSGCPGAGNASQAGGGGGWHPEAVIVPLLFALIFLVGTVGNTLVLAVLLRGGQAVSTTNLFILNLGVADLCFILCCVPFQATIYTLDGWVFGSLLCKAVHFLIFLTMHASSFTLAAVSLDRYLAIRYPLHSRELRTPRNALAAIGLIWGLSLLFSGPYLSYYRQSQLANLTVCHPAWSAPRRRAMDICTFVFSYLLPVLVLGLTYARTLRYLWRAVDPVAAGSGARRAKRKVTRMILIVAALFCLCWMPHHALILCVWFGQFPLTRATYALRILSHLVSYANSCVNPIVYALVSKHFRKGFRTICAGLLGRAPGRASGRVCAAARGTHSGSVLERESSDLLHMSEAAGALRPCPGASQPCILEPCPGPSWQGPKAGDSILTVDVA
Nature of the assay: Binding affinity at the human GALR2 receptor.

The target in assay [1] is T2, human MCH1 receptor (Homo sapiens, UniProt Q99705). Put plainly: Competition binding, membrane preparations of A293 cells expressing the human MCH1 receptor, [3H] Compound 10 as radioligand. The arrangement: expressed in transfected cells. The protocol:
TRITIATED METHYL (4S)-3-{[(3-{4-[3-(ACETYLAMINO)PHENYL]-1-[…]}PROPYL)AMINO]CARBONYL}-4-(3,4-DIFLUOROPHENYL)-6-(METHOXYMETHYL)-2-OXO-1,2,3,4-TETRAHYDRO-5-PYRIMIDINECARBOXYLATE ([^3H] COMPOUND 10): This radiochemical synthesis was carried out by Amersham Pharmacia Biotech, Cardiff, Wales. A methanolic solution of methyl (4S)-3-({[3-(4-[3-(acetylamino)phenyl]-3,6-dihydro-1(2H)pyridinyl)propyl]amino}carbonyl)-4-(3,4-difluorophenyl)-6-(methoxymethyl)-2-oxo-1,2,3,4-tetrahydro-5-pyrimidinecarboxylate was exposed to tritium gas at 1 atmosphere pressure in the presence of 5% palladium on carbon with stirring overnight to give the tritiated methyl (4S)-3-{[(3-{4-[3-(acetylamino)phenyl]-1-piperidinyl}propyl)amino]carbonyl}-4-(3,4-difluorophenyl)-6-(methoxymethyl)-2-oxo-1,2,3,4-tetrahydro-5-pyrimidinecarboxylate ((+)-isomer) After purification by reverse phase HPLC (Hypersil ODS, 4.6×100 mm, methanol:H2O:Et3N 10:90:1 to 100:0:1 in 15 min at 1.0 mL/min, with radiochemical and UV detection), this product was used as a radioligand in the MCH1 binding assays. The same procedure was carried out with H2 gas in place of ^3H2 to afford the non-radioactive version of Compound 10.

In assay [2] the target is T3, human Histamine H1 receptor (Homo sapiens, UniProt P35367).
T3 construct: expressed in transfected cells
T3 sequence (P35367 whole entry): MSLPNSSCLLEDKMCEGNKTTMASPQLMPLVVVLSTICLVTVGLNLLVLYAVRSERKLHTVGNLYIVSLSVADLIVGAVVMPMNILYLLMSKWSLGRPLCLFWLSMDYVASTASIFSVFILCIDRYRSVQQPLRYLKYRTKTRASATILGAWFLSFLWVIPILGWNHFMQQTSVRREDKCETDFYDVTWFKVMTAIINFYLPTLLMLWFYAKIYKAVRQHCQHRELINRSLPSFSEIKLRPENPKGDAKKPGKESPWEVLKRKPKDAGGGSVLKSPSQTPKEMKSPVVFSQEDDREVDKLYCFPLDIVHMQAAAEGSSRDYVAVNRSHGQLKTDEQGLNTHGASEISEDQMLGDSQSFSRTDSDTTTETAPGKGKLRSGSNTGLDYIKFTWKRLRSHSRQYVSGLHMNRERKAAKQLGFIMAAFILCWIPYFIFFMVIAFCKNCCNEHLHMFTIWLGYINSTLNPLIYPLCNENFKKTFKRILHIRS
Put plainly: Binding affinity at the human histamine H1 receptor. The essentials: (§1)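 Receptor binding read-out throughout; membranes expressing human D1 or D2 receptor were used for those two targets.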

In assay [3] the target is T4, human Alpha-1a Adrenergic receptor (Homo sapiens, UniProt P35348).
T4 construct: expressed in transfected cells
T4 sequence (P35348 1-466): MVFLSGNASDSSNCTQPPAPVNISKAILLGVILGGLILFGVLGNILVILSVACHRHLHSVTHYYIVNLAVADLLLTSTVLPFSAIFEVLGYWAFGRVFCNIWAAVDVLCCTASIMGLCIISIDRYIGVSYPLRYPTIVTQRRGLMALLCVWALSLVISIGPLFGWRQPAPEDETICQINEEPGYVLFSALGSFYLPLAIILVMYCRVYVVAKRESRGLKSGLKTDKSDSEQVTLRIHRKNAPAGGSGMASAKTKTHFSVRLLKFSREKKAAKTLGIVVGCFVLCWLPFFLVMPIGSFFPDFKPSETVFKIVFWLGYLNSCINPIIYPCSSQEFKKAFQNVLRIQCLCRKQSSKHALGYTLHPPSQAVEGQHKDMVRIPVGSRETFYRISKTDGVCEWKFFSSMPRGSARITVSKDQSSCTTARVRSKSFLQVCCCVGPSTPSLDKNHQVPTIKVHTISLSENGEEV
Nature of the assay: Binding affinity at the human alpha-1A adrenergic receptor. The essentials:
as §1

The target of assay [4] is T2, human MCH1 receptor. Put plainly: Intracellular calcium response to MCH in COS-7 cells transfected with MCH1 (fluo-3, FLIPR): antagonist potency. The class given is cell-based. The arrangement: expressed in transfected cells; host or cells: COS-7. An excerpt: MCH1 antagonist compounds were identified by their ability to inhibit the MCH-elicited response. […]. From the IC50 values, the antagonist potency (Kb)was derived using the Cheng-Prussof correction (Lazareno and Birdsall, 1993). […]
A general note: Calcium flux is commonly read through the fluorescence of an indicator in the cells.

Setting [5] is: Table 3b, A293 cell membranes, [3H] Compound 10, read-out: hMCH1* Ki.

T2 sequence (Q99705 whole entry): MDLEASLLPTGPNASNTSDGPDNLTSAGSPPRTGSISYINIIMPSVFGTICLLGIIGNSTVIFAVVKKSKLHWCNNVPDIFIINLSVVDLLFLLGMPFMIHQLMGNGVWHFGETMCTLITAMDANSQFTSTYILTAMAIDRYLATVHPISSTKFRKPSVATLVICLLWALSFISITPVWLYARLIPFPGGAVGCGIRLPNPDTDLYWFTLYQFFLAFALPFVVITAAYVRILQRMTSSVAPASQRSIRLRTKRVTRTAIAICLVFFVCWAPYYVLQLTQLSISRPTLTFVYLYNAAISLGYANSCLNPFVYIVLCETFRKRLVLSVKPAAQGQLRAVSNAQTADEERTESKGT

Consider `CCCCN(CCCC)c1ccc(CN2CCC(CNC(=O)N3C(=O)NC(C)=C(C(=O)OC)C3c3ccc4nonc4c3)CC2)cc1` (stereo not shown) [Example 6], for which the Ki amounted to 14900 nM at human GALR2 receptor (Table 3a, read-out: hGALR2 Ki); 14900 nM at human GALR2 receptor (Table 3b, read-out: hGALR2 Ki); 463 nM at human MCH1 receptor [1] (setting [5]).

As to `COCC1=C(C(=O)OC)[C@H](c2ccc(F)c(F)c2)N(C(=O)NCCCN2CCC(c3cccc(NC(C)=O)c3)CC2)C(=O)N1` [Example 10, (+)-1,2,3,6-TETRAHYDRO-1-{N-[4-(3,-ACETAMIDO)-PHENYLPIPERIDIN-1-YL]PROPYL}CARBOXAMIDO-4-METHOXYMETHYL-6-(3,4-DIFLUORO-PHENYL)-2-OXOPYRIMIDINE-5-CARBOXYLIC ACID METHYL ESTER], the Ki on human GALR2 receptor (Table 3a, read-out: hGALR2 Ki) is over 50000 nM; at human GALR2 receptor (Table 3b, read-out: hGALR2 Ki), over 50000 nM; in assay [2] (Table 3e, read-out: hH1 Ki), 4880 nM; in assay [3] (Table 3d, read-out: hα1A Ki) it was 45.8 nM; on human MCH1 receptor [1] (setting [5]) it was 0.08 nM. In addition, the antagonist dissociation constant (Kb) on human MCH1 receptor [4] (intracellular calcium mobilization assay, read-out: antagonist potency (Kb)) was 0.3 nM.

Take `CCC1=C(C(=O)O)C(c2ccc(F)c(F)c2)N(C(=O)NCCCN2CCC3(CC2)OCc2ccccc23)C(=O)N1` (single isomer, unassigned; (+)) [Example 4, (+)-1,2,3,6-TETRAHYDRO-1-1N-[4-(BENZO-4′,5′(H)FURAN)PIPERIDIN-1-YL]PROPYL}-CARBOXAMIDO-4-ETHYL-6-(3,4-DIFLUOROPHENYL)-2-OXO-PYRIMIDINE-5 CARBOXYLIC ACID HYDROCHLORIDE]: the Ki on human GALR2 receptor (Table 3a, read-out: hGALR2 Ki) was over 50000 nM; on human GALR2 receptor (Table 3b, read-out: hGALR2 Ki), over 50000 nM; at human MCH1 receptor [1] (setting [5]), 131 nM. Also, the Kb at human MCH1 receptor [4] (read-out: Kb (nM) hMCH1) amounted to 187 nM.

On to “2-(3,4-DIFLUOROPHENYL)4,5-DIHYDROIMIDAZOLE-1-CARBOXYLIC ACID {3-[4-PHENYL-4-(4-BROMO-5-METHYLTHIOPNEN-2-YL)]-PROPYL}-AMIDE [Example 19]”, for which the inhibition constant Ki was over 50000 nM on human GALR2 receptor (Table 3a, read-out: hGALR2 Ki); over 50000 nM at human GALR2 receptor (Table 3b, read-out: hGALR2 Ki); 11 nM in assay [2] (Table 3e, read-out: hH1 Ki); 2.5 nM in assay [3] (Table 3d, read-out: hα1A Ki); 3 nM at human MCH1 receptor [1] (setting [5]); 3 nM on human MCH1 receptor [1] (Table 3e, read-out: hMCH1 Ki). Also, the Ki at human MCH1 receptor [1] (Table 3d, read-out: hMCH1 Ki) amounted to 3 nM. Further, the antagonist dissociation constant (Kb) at human MCH1 receptor [4] (Table 3a, antagonist potency, read-out: hMCH1 Kb) amounted to 7 nM; on human MCH1 receptor [4] (Table 3b, antagonist potency, read-out: hMCH1 Kb) it was 7 nM; on human MCH1 receptor [4] (antagonist potency, inhibition of the response to 500 nM MCH, IC50 corrected by Cheng-Prussof, read-out: Kb (nM) hMCH1), 7 nM.

For the molecule `COC(=O)C1=C(C)NC(=O)N(C(=O)NCCCN2CCC3(CC2)OCc2ccccc23)C1c1ccc2nonc2c1` (single isomer, unassigned) [Example 18, HYDROCHLORIDE], the Ki was over 50000 nM at human GALR2 receptor; over 50000 nM at human GALR2 receptor (read-out: hGALR2 Ki, Table 3b); 31 nM in assay [2]; 1.7 nM in assay [3]; 4 nM at human MCH1 receptor [1]. The Kb at human MCH1 receptor [4] was 1 nM.

Regarding `COC(=O)C1=C(C)NC(=O)N(C(=O)NCCCN2CCC3(CC2)OCc2ccccc23)C1c1ccc(F)c(F)c1` (stereo not shown) [Example 20, 4-(3,4-DIFLUORPHENYL)-6-METHYL-2-OXO-3-{[3-(4-SPIRO[ISOBENZOFURAN-1(3H),4′-PIPERIDINE]PROPYL}-1,2,3,4-TETRAHYDROPYRIMIDINE-5-CARBOXYLIC ACID METHYL ESTER], the inhibitory constant (Ki) on human GALR2 receptor was over 50000 nM; at human GALR2 receptor (read-out: hGALR2 Ki, Table 3b), over 50000 nM; in assay [2], 39 nM; on human MCH1 receptor [1], 6 nM; at human MCH1 receptor [1] (read-out: hMCH1 Ki, Table 3e), 6 nM; on human MCH1 receptor [1] (read-out: hMCH1 Ki, Table 3d) it was 6 nM.

For the molecule `COCC1=C(C(=O)OC)C(c2ccc(F)c(F)c2)N(C(=O)NCCCN2CCC(c3cccc(NC(C)=O)c3)CC2)C(=O)N1` (single isomer, unassigned; (-)) [Example 1, (−)-1,2,3,6-TETRAHYDRO-1-{N-[4-(3,-ACETAMIDO)-PHENYLPIPERIDIN-1-YL]PROPYL}CARBOXAMIDO-4-METHOXYMETHYL-6-(3,4-DIFLUORO-PHENYL)-2-OXOPYRIMIDINE-5-CARBOXYLIC ACID METHYL ESTER], the inhibition constant Ki on human GALR2 receptor (Table 3a, read-out: hGALR2 Ki) is over 50000 nM; at human GALR2 receptor (Table 3b, read-out: hGALR2 Ki), over 50000 nM; in assay [3] (Table 3d, read-out: hα1A Ki) it was 2210 nM; at human MCH1 receptor [1] (setting [5]) it was 40 nM. The antagonist equilibrium constant (Kb) at human MCH1 receptor [4] (read-out: Kb (nM) hMCH1) is 42 nM.

For the molecule `O=C(CCCN1CCC(O)(c2ccc(Cl)cc2)CC1)c1ccc(Cl)cc1` [Example 29], the Ki on human GALR2 receptor is over 50000 nM; at human GALR2 receptor (read-out: hGALR2 Ki, Table 3b), over 50000 nM; at human MCH1 receptor [1] it was 350 nM.

`CCCCN(CCCC)c1ccc(CNC[C@H]2CC[C@H](NC(=O)c3cccc4ccccc34)CC2)cc1` [Example 13, N1-[4-([4-(DIBUTYLAMINO)BENZYL]AMINOMETHYL)CYCLOHEXYL]-1-NAPHTH-AMIDE]: the inhibitory constant (Ki) on human GALR2 receptor (Table 3a, read-out: hGALR2 Ki) came out at 4730 nM; at human GALR2 receptor (Table 3b, read-out: hGALR2 Ki) it was 4730 nM; on human MCH1 receptor [1] (setting [5]), 171 nM.
